Reference: PubChem BioAssay (NCI)
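Briefly, cells in 96-well plates were exposed to five compound concentrations for 48 h, and endpoints were estimated by linear interpolation. TGI is the concentration that stops growth completely.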

Assays:
Assay in all cases: NCI-60 cell line screen, 48 h
UO-31 renal = system: UO-31 renal
OVCAR-3 ovarian = system: OVCAR-3 ovarian
NCI-H23 lung = system: NCI-H23 lung
SK-MEL-5 melanoma = system: SK-MEL-5 melanoma
HT29 colon = system: HT29 colon
SK-OV-3 ovarian = system: SK-OV-3 ovarian
MCF7 breast = system: MCF7 breast
ACHN renal = system: ACHN renal
HCT-116 colon = system: HCT-116 colon
SF-539 CNS = system: SF-539 CNS
NCI/ADR-RES ovarian = system: NCI/ADR-RES ovarian

| SMILES | TGI (UO-31 renal) | TGI (OVCAR-3 ovarian) | TGI (NCI-H23 lung) | TGI (SK-MEL-5 melanoma) | TGI (HT29 colon) | TGI (SK-OV-3 ovarian) | TGI (MCF7 breast) | TGI (ACHN renal) | TGI (HCT-116 colon) | TGI (SF-539 CNS) | TGI (NCI/ADR-RES ovarian) |
| --- | --- | --- | --- | --- | --- | --- | --- | --- | --- | --- | --- |
| c1ccc(-c2cc(-c3cc(-c4ccccc4)n[nH]3)[nH]n2)cc1 | > 100 µM | > 100 µM | > 100 µM | > 100 µM | > 100 µM | > 100 µM | > 100 µM | > 100 µM | > 100 µM | > 100 µM | > 100 µM |
| N#Cc1nsnc1-c1nc(-c2nsnc2C#N)nc(-c2nsnc2C#N)n1 | > 100 µM | > 100 µM | > 100 µM | > 100 µM | > 100 µM |  | > 100 µM | > 100 µM | > 100 µM | > 100 µM | > 100 µM |
| CC(C)(C)OC(=O)/C=C/C(=O)O/C=C/[N+](=O)[O-] | > 100 µM | > 100 µM | > 100 µM | > 100 µM | > 100 µM | > 100 µM | > 100 µM | > 100 µM | > 100 µM | > 100 µM |  |
| c1ccc2c(Cc3c[nH]c4ccccc34)c[nH]c2c1 | 27.7 µM | 30.8 µM | 38.3 µM | 27.2 µM | 30.2 µM | 51 µM | > 100 µM | > 100 µM | 31.2 µM |  | 62 µM |
| Nc1ccccc1Sc1ccc(Cl)cc1 | 51 µM | 72.1 µM | 64.4 µM | 32 µM | 36.3 µM | > 100 µM |  | 99.2 µM | > 100 µM | > 100 µM |  |
| O=[N+]([O-])C(=C/C1CCCCC1)/C(=C\C1CCCCC1)[N+](=O)[O-] | 22.4 µM | 31.6 µM | 10.1 µM | 23.1 µM | 28.8 µM | 42.7 µM | 26.4 µM | 10.7 µM | 17.7 µM | 9.4 µM | 7.29 µM |
| O=C1CNc2cc(N3CCN(c4cccc(C(F)(F)F)c4)CC3)ccc2N1 | > 100 µM | > 100 µM | > 100 µM | 40.3 µM | > 100 µM | > 100 µM | > 90.1 µM | > 100 µM | > 100 µM | > 100 µM | > 91.1 µM |
| O=C(c1ccc(Cl)cc1)N(C(=S)N1CCN(c2ccccc2)CC1)c1ccccc1 | > 100 µM | > 100 µM | > 100 µM | > 100 µM | > 100 µM | > 100 µM |  | > 100 µM | > 100 µM | > 100 µM |  |
| CCO[C@H]1C[C@@H](c2ccccc2)[C@]2(C)C[C@H](C(=O)OC)ON2O1 | > 100 µM | > 100 µM | > 100 µM | > 100 µM | > 100 µM |  | > 100 µM | > 100 µM | > 100 µM | > 100 µM | > 100 µM |
| Cc1ccc(N2C(=O)CC(=O)N(NC(=O)C(C)Oc3ccccc3C)C2=S)cc1 (stereo not given) | > 100 µM | > 100 µM | > 100 µM | > 100 µM | > 100 µM | > 100 µM | > 100 µM | > 100 µM | > 100 µM | > 100 µM | > 100 µM |
| COc1ncc(C#CC(=O)c2ccccc2OC)c(OC)n1 | 2.97 µM | 8.27 µM | 7.56 µM | 5.85 µM | 3.84 µM | > 60.4 µM | 2.91 µM | 3.27 µM | 9.72 µM |  | 4.78 µM |
| O=C1NC(N/N=C/C(O)C(O)C(O)C(O)CO)=N/C1=C\c1cccs1 (stereo not given) |  | > 100 µM | > 100 µM | > 100 µM | > 100 µM | > 100 µM | > 100 µM | > 100 µM | > 100 µM | > 100 µM | > 100 µM |
| NNC(=O)CCCCCCCC(=O)O | > 100 µM | > 100 µM | > 100 µM | > 100 µM | > 100 µM | > 100 µM | > 100 µM | > 100 µM | > 100 µM | > 100 µM | > 100 µM |
| C=CCOc1ccc(C2c3c([nH][nH]c3=O)CC(C)(O)C2C(=O)OC)cc1OC (stereo not given) | > 100 µM | > 100 µM | > 100 µM | > 100 µM | > 100 µM |  | > 100 µM | > 100 µM | > 100 µM | > 100 µM | > 100 µM |
| C=C1CC(CNc2cc(Cl)nc(N)n2)C1 | > 100 µM | > 100 µM | > 100 µM | > 100 µM | > 100 µM | > 100 µM | > 100 µM | > 100 µM |  | > 100 µM | > 100 µM |
| FC(F)(F)C1(C(F)(F)F)OC(Cl)(Cl)C(Cl)(Cl)O1 |  | > 10 µM | > 10 µM | > 10 µM | > 10 µM | > 10 µM | > 10 µM | > 10 µM | > 10 µM | > 10 µM | > 10 µM |
| O=C(CN=C(CN(c1ccccc1)c1ccccc1)Oc1c([N+](=O)[O-])cc([N+](=O)[O-])cc1[N+](=O)[O-])N1CCNCC1 |  | > 100 µM | > 100 µM | > 100 µM | > 100 µM | > 100 µM | > 100 µM | > 100 µM | > 100 µM | > 100 µM |  |
| Cc1[nH]n(-c2nc(O)c(C)c(=O)[nH]2)c(=O)c1CCO | > 100 µM |  | > 100 µM | > 100 µM | > 100 µM | > 100 µM | > 100 µM | > 100 µM | > 100 µM | > 100 µM |  |
| CC(=O)/C=C/c1c[nH]c(=O)[nH]c1=O | 397 µM | 608 µM | 745 µM | 574 µM | 847 µM | 703 µM | 516 µM |  | 388 µM | 601 µM | 781 µM |
| OCCCN(CCc1ccc(Cl)c(Cl)c1)CCN1CCCC1 | > 100 µM | > 100 µM | > 100 µM |  | > 100 µM | > 100 µM | 79.9 µM | > 100 µM | > 100 µM |  | > 100 µM |
| CC1(C)OC[C@@]2([C@@H]3CC[C@@H](C3)C2(C)C)N1O |  | > 100 µM | > 100 µM | > 100 µM | > 100 µM | > 100 µM | > 100 µM | > 100 µM | > 100 µM | > 100 µM | > 100 µM |
